Data on two molecules can be found in patent US5095007A, “Alteration of rate and character of hair growth” (priority 1990, dated 1992).

One assay has as its system hamster flank organ. Description: Reduction of hair growth (hair mass) on hamster flank organ after topical application. The class given is in vivo, Golden Syrian hamster. The note with it: for Percent Inhibition of Hair Growth: vs vehicle-treated organ. From the text: L-alanosine was mixed with separate portions of the foregoing vehicle to provide specimens containing 0.1, 0.5, 1, 2, and 6% by weight respectively of the inhibitor and the pH was adjusted to pH 7.5 with sodium hydroxide.
Four groups (eight animals in each group) of male intact Golden Syrian hamsters were provided. These animals were considered acceptable models for human beard hair growth in that they display oval shaped flank organs, one on each side, each about 8 mm. in major diameter, which grow thick black and coarse hair similar to human beard hair. These organs produce hair in response to androgens in the hamster. The flank organs of each hamster were depilated by applying a thioglycolat-- based chemical depilatory (Surgex), and to one organ of each animal was applied 10-25 μl. of vehicle alone once a day, while to the other organ of each animal was applied an equal amount of vehicle containing inhibitor. After three weeks of such applications (five days a week), the flank organs were shaved and the amount of recovered hair (hair mass) from each was weighed. The extent of reduction in hair growth by the inhibitor was expressed as the percent decrease in hair mass on the organ treated with inhibitor as compared to the organ treated with vehicle alone. As a control, one group of eight animals had both flank organs of each animal treated with vehicle alone.
A series of compositions was prepared containing various percentages by weight of N-phosphonacetyl-L-aspartic acid (PALA) in the vehicle described in Example 1 above adjusted to pH 4.5, and applied to hamster flank organs under the same conditions as described in Example 1. The reduction in hair growth observed after three weeks was as follows: […]

Assay [1] concerns adenosine nucleotide contents of hair follicles. The assay is described as follows: Adenosine nucleotide contents of flank organ hair follicles after topical treatment. The class given is in vivo, hamster. Particulars: 10% in vehicle, three days of daily treatments. On the procedure:
The effect of the enzyme inhibition, was further shown by measurements of hair follicle nucleotide levels after topical treatment with L-alanosine. A group of eight hamsters was treated topically with L-alanosine (10% in the vehicle above) on one flank organ while the other organ received an equal amount of just the vehicle. After three days of daily treatments, the hair follicles from the flank organs were removed and the adenosine nucleotide contents were determined.

The subject of assay [2] is adenylosuccinate synthetase. Description: Adenylosuccinate synthetase activity in hamster hair follicles after topical treatment. Particulars: 10% solution, twice over a 24 hour period. The class given is in vivo.
The test system of assay [3] is pyrimidine nucleotide content of hair follicles. Description: Pyrimidine nucleotide content of hair follicles after topical treatment. In kind it is in vivo, hamster. The note with it: same treatment protocol as nucleotide content in Example 1 (10%, three days daily).
Assay [4] deals with aspartate transcarbamylase. The assay is described as follows: Aspartate transcarbamylase activity in hamster hair follicles after topical treatment. In kind it is in vivo. The note with it: 10% solution, two treatments over a 24 hour period.
Where [5] appears, read: L-alanosine 0.5%, 25 μl, pH 7.5, three weeks.
Setting [6] is: L-alanosine 1.0%, 25 μl, pH 7.5, three weeks.
[7] abbreviates: L-alanosine 2.0%, 25 μl, pH 7.5, three weeks.
[8] abbreviates: L-alanosine 6.0%, 25 μl, pH 7.5, three weeks.
[9] abbreviates: PALA 2%, 10 μl, pH 4.5, three weeks.
The mark [10] stands for this setting: PALA 2%, 25 μl, pH 4.5, three weeks.
[11] abbreviates: PALA 4%, 25 μl, pH 4.5, three weeks.
Where [12] appears, read: PALA 6%, 10 μl, pH 4.5, three weeks.
[13] abbreviates: PALA 6%, 25 μl, pH 4.5, three weeks.

Take `N[C@@H](CN(O)N=O)C(=O)O` [L-alanosine, L-2-amino-3-(N-hydroxy, N-nitrosamino) propionic acid]: the “Hamster Flank Organ Hair Mass, Treated Mean” value (from here on “Hamster Flank Organ Hair Mass”) with hamster flank organ (L-alanosine 0.1%, 25 μl, pH 7.5, once a day, five days a week, three weeks) turned out to be 0.68 mg; in the assay on hamster flank organ (setting [5]) it was 0.67 mg; in the assay with hamster flank organ (setting [6]), 0.38 mg; with hamster flank organ (setting [7]), 0.51 mg; in the assay on hamster flank organ (setting [8]) it was 0.07 mg. Further, the “Percent Inhibition of Hair Growth” value was 18% in the assay on hamster flank organ (L-alanosine 0.1%, 25 μl, pH 7.5, three weeks); 32% in the assay with hamster flank organ (setting [5]); 47% in the assay with hamster flank organ (setting [6]); 61% with hamster flank organ (setting [7]); 92% with hamster flank organ (setting [8]). Moreover, the “Nature of the hair on the treated organ” value in the assay on hamster flank organ (treated vs untreated organ, Table 1 footnote) is on record as “more vellous”. The “reduction in ADP levels in hair follicles” value in assay [1] was 40%. Also, in assay [1], the “reduction in AMP levels in hair follicles” value is on record as 50%. In assay [1], the “reduction in ATP levels in hair follicles” value is on record as 29%. Besides, in assay [2], the “inhibition of adenylosuccinate synthetase activity” value is listed as “about 49%”.
Turning to `O=C(O)C[C@H](NC(=O)CP(=O)(O)O)C(=O)O` [PALA, N-phosphonacetyl-L-aspartic acid], in the assay with hamster flank organ (setting [9]), the “Hamster Flank Organ Hair Mass” value is 1.36 mg and the “Percent Inhibition of Hair Growth” value was determined as 13%. Further, in the assay with hamster flank organ (setting [10]), the “Hamster Flank Organ Hair Mass” value is recorded as 1.34 mg and the “Percent Inhibition of Hair Growth” value was found to be 19%. Besides, in the assay on hamster flank organ (setting [11]), the “Hamster Flank Organ Hair Mass” value stood at 0.85 mg and the “Percent Inhibition of Hair Growth” value was determined as 50%. In the assay on hamster flank organ (setting [12]), the “Hamster Flank Organ Hair Mass” value is listed as 0.37 mg and the “Percent Inhibition of Hair Growth” value was 78%. In addition, in the assay with hamster flank organ (setting [13]), the “Hamster Flank Organ Hair Mass” value is recorded as 0.23 mg and the “Percent Inhibition of Hair Growth” value worked out at 87%. Further, in assay [3], the “inhibition of CDP (hair follicle content)” value is reported as 19%, the “inhibition of CTP (hair follicle content)” value was 60%, the “inhibition of UDP (hair follicle content)” value is 25% and the “inhibition of UTP (hair follicle content)” value stood at 50%. In assay [4], the “reduction of aspartate transcarbamylase activity” value amounted to 72%.
